In assay [1] the test system is RAGE ligand-dependent activation of RAGE. Put plainly: S100A8/A9-induced NFκB activation (p65 gene expression) in CHO cells expressing RAGE constructs. The format is cell-based, human.
A further assay addresses T1, AT1 (Homo sapiens, UniProt P30556).
T1 sequence (P30556 1-359): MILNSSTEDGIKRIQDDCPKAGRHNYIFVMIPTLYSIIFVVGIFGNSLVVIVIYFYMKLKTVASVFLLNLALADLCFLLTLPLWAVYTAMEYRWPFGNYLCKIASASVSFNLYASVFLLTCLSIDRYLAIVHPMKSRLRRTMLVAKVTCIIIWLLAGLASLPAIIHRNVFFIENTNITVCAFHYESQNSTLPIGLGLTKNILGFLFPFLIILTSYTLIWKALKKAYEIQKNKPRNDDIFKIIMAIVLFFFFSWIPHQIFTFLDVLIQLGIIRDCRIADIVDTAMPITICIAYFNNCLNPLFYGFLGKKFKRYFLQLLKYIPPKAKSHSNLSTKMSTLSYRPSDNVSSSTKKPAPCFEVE
Put plainly: Classical GPCR signalling (IP-one HTRF, EGR1) in AT1R-CHO cells. The format is cell-based. Set-up: expressed in transfected cells. The settings on record: 1 μM.

Assay [2] relates to PMAEC. Put plainly: Generation of superoxide and additional markers of oxidative stress (DCFH, Rac-1 G-LISA, oxidized glutathione) in PMAEC. The format is cell-based, mouse. As to the method:
Generation of Superoxide and Additional Markers of Oxidative Stress
To quantitate superoxide production induced by Ang II, a vessel chamber assay was used to measure total cytoplasmic and mitochondrial superoxide production in real time in PMAEC from AGER KO and C57Bl6 aortae. PMAEC were grown on collagen coated cover slips and mounted into a sealed glass chamber when they were 80% confluent. The chambers were perfused with Krebs buffer for an hour with fluorescent readings taken every 10 minutes to establish baseline readings. The cells were then perfused with 1 μM Ang II for 60 minutes and fluorescent readings were taken every 1 minute for a further 10 minutes. Fluorescence readings were expressed as change (Δ) in fluorescence arbitrary units from baseline. Levels of the activated NADPH oxidase subunit, Rac-1 activation was also measured in cell lysates after exposure to Ang II using a Rac-1 G-LISA activation assay (Cytoskeleton), as per manufacturers' instructions. Additional markers of oxidative stress were also assayed including levels of oxidized glutathione, (Cayman Chemical Company, US), performed as per manufacturer's instructions.

Assay [3] relates to PMAEC. As to the kind of experiment: Static adhesion assay (labelled THP-1 cells on PMAEC monolayer). The format is cell-based, mouse. The settings on record: PMAEC from C57bl6 mice, 1 μM. The procedure: Functional responsiveness to Ang II was determined in PMAEC using a static adhesion assay, in which PMAEC were seeded at 50,000 cells per well into six-well plates and allowed to grow to 70% confluency before treatment with 1 μM Ang II for 24 hours. Human THP-1 cells, which mimic monocytes and macrophages in the vasculature, were stained using CellVue Burgundy Fluorescent Cell labelling Kit (LICOR) as per manufacturer's instructions before seeding them onto the endothelial cell monolayers at 3×10^5 viable cells per well and incubated for 20 minutes at 37° C. The cells that had not adhered to the endothelial cell monolayer were removed and the wells washed with PBS before fixing with 4% formalin in PBS for 30 min. The adhesion of cells was then quantitated using the ODYSSEY infra-red imager (Licor). Additionally adhered cells were photographed at ×20 using light microscopy (Olympus CKX41).

Description for AT1: Generation of Transgenic Chinese Hamster Ovary Cells
100 ng of AT1R-Rluc8 construct was transfected into CHO cells using Lipofectamine 2000 (Thermo). Stable transfectants were selected using G418. AT1R—CHO were then transiently transfected with RAGE constructs using Lipofectamine 2000 (Invitrogen) and incubated for 16 h.
Classical GPCR Signalling

On to “L362WQRRQRRGEERKAPENQEEEEERAELNQAEEPEAGESSTGGP404 (LWQRRQRRGEERKAPENQEEEEERAELNQAEEPEAGESSTGGP; listed as Homo sapiens) [S391A-RAGE362-404, S391A mutant RAGE cytosolic tail; non-functional substitute for RAGE]”, for which the “inhibition of S100A8/A9-induced p65 expression” value in assay [1] (AT1R-CHO cells also expressing full length RAGE) is reported as “inhibitory effect”. The “inhibition of RAGE ligand-dependent activation of wild-type RAGE (S100A8/A9)” value in assay [1] (summary statement, cell system not given) is recorded as “inhibits”.

Take “angiotensin II (DRVYIHPF) [Ang II, cognate ligand of AT1R]”: the “classical responsiveness: inositol phosphate synthesis and EGR1 induction” value in the assay with AT1 is on record as “induction”. For the same substance, the “ROS production and oxidative stress” value in the assay on PMAEC [2] (PMAEC from AGER KO mice) was “does not lead to”. Further, the “production of ROS and other markers of oxidative stress (activated rac-1, oxidised glutathione)” value in the assay with PMAEC [2] (PMAEC from C57bl6 mice, 1 μM) was “rapid increase”. Also, the “adhesion of labelled THP-1 cells to PMAEC monolayer” value in the assay with PMAEC [3] is “increased adhesion”.

Values taken from patent US12060408B2, “Screening assays, modulators and modulation of activation of Receptor for Advanced Glycation End-products (RAGE)” (Monash University, priority 2017, dated 2024).
